Laboratory results from patent US20240208992A1, “MACROCYCLES AS CFTR MODULATORS” (Idorsia Pharmaceuticals Ltd, priority 2021, published 2024).

Target: human F508del-CFTR (Homo sapiens, UniProt P13569, DEL508-508)
Experiment: F508del-CFTR cell surface expression (corrector activity), DiscoveRx ß-galactosidase complementation chemiluminescence assay in recombinant U2OS cell line;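 further: U2OS cells co-expressing ProLink-tagged F508del-CFTR and a membrane-anchored enzyme acceptor, where more surface CFTR restores β-galactosidase activity measured by chemiluminescence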
Details: U2OS cell line, 16h compound incubation; for EC50: EC50, F508del-CFTR cell surface expression, geomean values; for Emax: U2OS, in relation to the Emax of the corrector lumacaftor (=100%), arithmetic mean values

Chain of human F508del-CFTR (P13569 with tags, fused parts or gaps DEL508-508): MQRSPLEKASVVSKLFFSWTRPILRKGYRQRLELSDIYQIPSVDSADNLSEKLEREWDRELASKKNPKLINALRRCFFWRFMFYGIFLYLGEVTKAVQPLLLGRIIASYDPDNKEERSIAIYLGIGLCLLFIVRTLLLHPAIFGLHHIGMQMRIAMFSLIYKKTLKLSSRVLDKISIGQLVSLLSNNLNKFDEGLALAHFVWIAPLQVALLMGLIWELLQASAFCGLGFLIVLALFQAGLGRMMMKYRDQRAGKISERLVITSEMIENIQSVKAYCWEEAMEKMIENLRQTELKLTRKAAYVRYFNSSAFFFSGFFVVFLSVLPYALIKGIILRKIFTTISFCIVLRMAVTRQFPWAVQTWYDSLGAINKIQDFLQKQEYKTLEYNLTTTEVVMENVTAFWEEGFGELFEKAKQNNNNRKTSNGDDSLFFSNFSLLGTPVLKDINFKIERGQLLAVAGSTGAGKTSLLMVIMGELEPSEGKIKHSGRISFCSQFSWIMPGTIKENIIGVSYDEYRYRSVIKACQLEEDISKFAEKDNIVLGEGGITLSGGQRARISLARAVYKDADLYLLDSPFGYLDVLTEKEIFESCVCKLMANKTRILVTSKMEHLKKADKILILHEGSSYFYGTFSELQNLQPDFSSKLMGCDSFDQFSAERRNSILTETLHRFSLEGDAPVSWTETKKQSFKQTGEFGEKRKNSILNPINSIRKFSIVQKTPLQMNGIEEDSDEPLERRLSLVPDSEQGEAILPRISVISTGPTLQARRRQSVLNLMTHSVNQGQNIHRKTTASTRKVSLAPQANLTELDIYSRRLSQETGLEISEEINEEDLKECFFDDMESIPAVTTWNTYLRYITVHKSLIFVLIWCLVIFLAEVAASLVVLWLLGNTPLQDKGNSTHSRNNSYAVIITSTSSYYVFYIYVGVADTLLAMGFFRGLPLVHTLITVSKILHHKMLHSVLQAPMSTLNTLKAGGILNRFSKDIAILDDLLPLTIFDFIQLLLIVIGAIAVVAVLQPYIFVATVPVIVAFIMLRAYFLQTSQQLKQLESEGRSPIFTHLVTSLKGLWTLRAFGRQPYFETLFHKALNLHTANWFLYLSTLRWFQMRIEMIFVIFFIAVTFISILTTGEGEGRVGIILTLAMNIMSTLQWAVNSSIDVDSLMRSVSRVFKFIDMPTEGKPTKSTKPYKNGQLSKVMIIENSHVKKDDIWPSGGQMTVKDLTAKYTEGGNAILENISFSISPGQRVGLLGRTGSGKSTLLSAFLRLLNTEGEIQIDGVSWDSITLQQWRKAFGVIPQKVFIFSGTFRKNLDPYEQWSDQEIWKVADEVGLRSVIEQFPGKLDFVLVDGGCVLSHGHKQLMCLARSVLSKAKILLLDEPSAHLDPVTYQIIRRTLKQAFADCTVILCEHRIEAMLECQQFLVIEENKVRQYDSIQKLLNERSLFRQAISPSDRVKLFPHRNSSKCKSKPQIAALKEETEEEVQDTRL

| Structure (SMILES) | EC50 | Emax |
| --- | --- | --- |
| COc1cccc2c1C(=O)N[C@H](C(=O)NCCCOC(F)F)CC(=O)N(C)[C@@H](CC(C)C)C(=O)N(CCC1CCCCC1)CC(=O)N[C@H](Cc1ccccc1)CO2 [Example 21, (3R,9S,13S)-3-benzyl-7-(2-cyclohexylethyl)-N-(3-(difluoromethoxy)propyl)-9-isobutyl-16-methoxy-10-methyl-5,8,11,15-tetraoxo-2,3,4,5,6,7,8,9,10,11,12,13,14,15-tetradecahydrobenzo[p][1]oxa[4,7,10,14]tetraazacycloheptadecine-13-carboxamide] | 0.35 µM | 108% |
| COc1cccc2c1OC[C@@H](NC(=O)[C@@H]1CC(=O)N(C)[C@@H](CC(C)C)C(=O)N3CCOC[C@@H]3C(=O)N[C@H](Cc3ccccc3)COc3ccc4ccccc4c3C(=O)N1)C2 [Example 32, (4aR,7R,18S,22S)-7-benzyl-22-isobutyl-N-(-8-methoxychroman-3-yl)-21-methyl-5,16,20,23-tetraoxo-1,2,4,4a,5,6,7,8,16,17,18,19,20,21,22,23-hexadecahydronaphtho[1,2-p][1,4]oxazino[3,4-f][1]oxa[4,7,10,14]tetraazacycloheptadecine-18-carboxamide] | 0.318 µM | 146% |
| COc1cccc(OCCNC(=O)[C@@H]2CC(=O)N(C)[C@@H](CC(C)C)C(=O)N3CCOC[C@@H]3C(=O)N[C@H](Cc3ccccc3)COc3ccc4ccccc4c3C(=O)N2)c1 [Example 33, (4aR,7R,18S,22S)-7-benzyl-22-isobutyl-N-(2-(3-methoxyphenoxy)ethyl)-21-methyl-5,16,20,23-tetraoxo-1,2,4,4a,5,6,7,8,16,17,18,19,20,21,22,23-hexadecahydronaphtho[1,2-p][1,4]oxazino[3,4-f][1]oxa[4,7,10,14]tetraazacycloheptadecine-18-carboxamide] | 0.255 µM | 141% |
| COc1ccc(OCCNC(=O)[C@@H]2CC(=O)N(C)[C@@H](CC(C)C)C(=O)N3CCOC[C@@H]3C(=O)N[C@H](Cc3ccccc3)COc3ccc4ccccc4c3C(=O)N2)cc1 [Example 34, (4aR,7R,18S,22S)-7-benzyl-22-isobutyl-N-(2-(4-methoxyphenoxy)ethyl)-21-methyl-5,16,20,23-tetraoxo-1,2,4,4a,5,6,7,8,16,17,18,19,20,21,22,23-hexadecahydronaphtho[1,2-p][1,4]oxazino[3,4-f][1]oxa[4,7,10,14]tetraazacycloheptadecine-18-carboxamide] | 0.26 µM | 121% |
| COc1cc2c(cc1CCNC(=O)[C@@H]1CC(=O)N(C)[C@@H](CC(C)C)C(=O)N3CCOC[C@@H]3C(=O)N[C@H](Cc3ccccc3)COc3ccc4ccccc4c3C(=O)N1)OCCO2 [Example 35, (4aR,7R,18S,22S)-7-benzyl-22-isobutyl-N-(2-(7-methoxy-2,3-dihydrobenzo[b][1,4]dioxin-6-yl)ethyl)-21-methyl-5,16,20,23-tetraoxo-1,2,4,4a,5,6,7,8,16,17,18,19,20,21,22,23-hexadecahydronaphtho[1,2-p][1,4]oxazino[3,4-f][1]oxa[4,7,10,14]tetraazacycloheptadecine-18-carboxamide] | 0.262 µM | 109% |
| Cc1c(CCNC(=O)[C@@H]2CC(=O)N(C)[C@@H](CC(C)C)C(=O)N3CCOC[C@@H]3C(=O)N[C@H](Cc3ccccc3)COc3ccc4ccccc4c3C(=O)N2)c(Cl)cc2c1OCCO2 [Example 36, (4aR,7R,18S,22S)-7-benzyl-N-(2-(7-chloro-5-methyl-2,3-dihydrobenzo[b][1,4]dioxin-6-yl)ethyl)-22-isobutyl-21-methyl-5,16,20,23-tetraoxo-1,2,4,4a,5,6,7,8,16,17,18,19,20,21,22,23-hexadecahydronaphtho[1,2-p][1,4]oxazino[3,4-f][1]oxa[4,7,10,14]tetraazacycloheptadecine-18-carboxamide] | 0.306 µM | 120% |
| CC(C)C[C@H]1C(=O)N2CCOC[C@@H]2C(=O)N[C@H](Cc2ccccc2)COc2ccc3ccccc3c2C(=O)N[C@H](C(=O)NCCc2cc3c(cc2Cl)OCCO3)CC(=O)N1C [Example 37, (4aR,7R,18S,22S)-7-benzyl-N-(2-(7-chloro-2,3-dihydrobenzo[b][1,4]dioxin-6-yl)ethyl)-22-isobutyl-21-methyl-5,16,20,23-tetraoxo-1,2,4,4a,5,6,7,8,16,17,18,19,20,21,22,23-hexadecahydronaphtho[1,2-p][1,4]oxazino[3,4-f][1]oxa[4,7,10,14]tetraazacycloheptadecine-18-carboxamide] | 0.122 µM | 205% |

More lines, in order of falling EC50, values ahead:

| EC50 | Emax | Structure (SMILES) |
| --- | --- | --- |
| 0.6 µM | 104% | COCCOCCNC(=O)[C@@H]1CC(=O)N(C)[C@@H](CC(C)C)C(=O)N(CCC2CCCCC2)CC(=O)N[C@H](Cc2ccccc2)COc2cccc(OC)c2C(=O)N1 [Example 22, (3R,9S,13S)-3-benzyl-7-(2-cyclohexylethyl)-9-isobutyl-16-methoxy-N-(2-(2-methoxyethoxy)ethyl)-10-methyl-5,8,11,15-tetraoxo-2,3,4,5,6,7,8,9,10,11,12,13,14,15-tetradecahydrobenzo[p][1]oxa[4,7,10,14]tetraazacycloheptadecine-13-carboxamide] |
| 0.463 µM | 111% | CC(C)C[C@H]1C(=O)N2CCCC[C@@H]2C(=O)N[C@H](Cc2ccccc2)COc2ccc3ncn(C)c3c2C(=O)N[C@H](C(=O)NCCc2ccc(-n3nccn3)cc2)CC(=O)N1C [Example 31, (8S,12S,18aR,21R)-N-(4-(2H-1,2,3-triazol-2-yl)phenethyl)-21-benzyl-12-isobutyl-5,11-dimethyl-6,10,13,19-tetraoxo-6,7,8,9,10,11,12,13,16,17,18,18a,19,20,21,22-hexadecahydro-5H,15H-imidazo[4′,5′:5,6]benzo[1,2-p]pyrido[2,1-f][1]oxa[4,7,10,14]tetraazacycloheptadecine-8-carboxamide] |
| 0.439 µM | 140% | CC(C)C[C@H]1C(=O)N2CCCC[C@@H]2C(=O)N[C@H](Cc2ccccc2)COc2ccc3ncn(C)c3c2C(=O)N[C@H](C(=O)NCCc2nc3c(s2)CCC3)CC(=O)N1C [Example 29, (8S,12S,18aR,21R)-21-benzyl-N-(2-(5,6-dihydro-4H-cyclopenta[d]thiazol-2-yl)ethyl)-12-isobutyl-5,11-dimethyl-6,10,13,19-tetraoxo-6,7,8,9,10,11,12,13,16,17,18,18a,19,20,21,22-hexadecahydro-5H,15H-imidazo[4′,5′:5,6]benzo[1,2-p]pyrido[2,1-f][1]oxa[4,7,10,14]tetraazacycloheptadecine-8-carboxamide] |
| 0.275 µM | 113% | CC(C)C[C@H]1C(=O)N2CCCC[C@@H]2C(=O)N[C@H](Cc2ccccc2)COc2ccc3ncn(C)c3c2C(=O)N[C@H](C(=O)NCCc2noc3ccccc23)CC(=O)N1C [Example 30, (8S,12S,18aR,21R)-N-(2-(benzo[d]isoxazol-3-yl)ethyl)-21-benzyl-12-isobutyl-5,11-dimethyl-6,10,13,19-tetraoxo-6,7,8,9,10,11,12,13,16,17,18,18a,19,20,21,22-hexadecahydro-5H,15H-imidazo[4′,5′:5,6]benzo[1,2-p]pyrido[2,1-f][1]oxa[4,7,10,14]tetraazacycloheptadecine-8-carboxamide] |
